Source: patent US20150105252A1, “SUBSTITUTED PYRAZOLES AS HERBICIDES” (E I DU PONT DE NEMOURS AND COMPANY, priority 2013, published 2015)

Experiments:
corn = assay: Test C preemergence; format: in vivo, Zea mays; conditions: for Plant response rating (scale of 0 to 100), Corn: Preemergence, 250 g ai/ha; for Corn plant response rating / Plant response rating, Corn: preemergence; for Plant response rating, Corn: 62 g ai/ha, scale 0 to 100, 0 = no effect, 100 = complete control
How it was run: (§1)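 Scores of 0 (no effect) to 100 (complete control) were assigned by eye after 13–15 days, comparing treated pots with controls. Soil-applied (preemergence) treatments went onto seeds in loam and sand; foliar (postemergence) treatments onto 1- to 4-leaf plants in peat medium.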

velvetleaf [1] = assay: Test C preemergence; format: in vivo, Abutilon theophrasti; conditions: for Plant response rating (scale of 0 to 100), Velvetleaf: Preemergence, 250 g ai/ha; for Velvetleaf plant response rating / Plant response rating, Velvetleaf: preemergence; for Plant response rating, Velvetleaf: 62 g ai/ha, scale 0 to 100, 0 = no effect, 100 = complete control
Excerpt: (§2) Seeds of plant species selected from blackgrass (Alopecurus myosuroides), ryegrass, Italian (Italian ryegrass, Lolium multiflorum), wheat (winter wheat, Triticum aestivum), galium (catchweed bedstraw, Galium aparine), corn (Zea mays), crabgrass, large (large crabgrass, Digitaria sanguinalis), foxtail, giant (giant foxtail, Setaria faberii), johnsongrass (Sorghum halepense), lambsquarters (Chenopodium album), morningglory (Ipomoea coccinea), nutsedge, yellow (yellow nutsedge, Cyperus esculentus), pigweed (redroot pigweed, Amaranthus retroflexus), ragweed (common ragweed, Ambrosia elation), soybean (Glycine max), barnyardgrass (Echinochloa crus-galli), oilseed rape (Brassica napus), waterhemp (common waterhemp, Amaranthus rudis), oat, wild (wild oat, Avena fatua), kochia (Kochia scoparia), Surinam grass (Brachiaria decumbens), foxtail, green (green foxtail, Setaria viridis), goosegrass (Eleusine indica), bromegrass, downy (downy bromegrass, Bromus tectorum), nightshade (eastern black nightshade, Solanum ptycanthum), cocklebur (common cocklebur, Xanthium strumarium), cupgrass, woolly (woolly cupgrass, Eriochloa villosa), bermudagrass (Cynodon dactylon), sunflower, (common oilseed sunflower, Helianthus annuus), Russian thistle (Salsola kali), and velvetleaf (Abutilon theophrasti) were planted into a blend of loam soil and sand and treated preemergence with test chemicals formulated in a non-phytotoxic solvent mixture which included a surfactant.
(§3) At the same time, plants selected from these crop and weed species and also chickweed (common chickweed, Stellaria media), canarygrass (littleseed canarygrass, Phalaris minor), and deadnettle (henbit deadnettle, Lamium amplexicaule), were planted in pots containing Redi-Earth® planting medium (Scotts Company, 14111 Scottslawn Road, Marysville, Ohio 43041) comprising spaghnum peat moss, vermiculite, wetting agent and starter nutrients and treated with postemergence applications of test chemicals formulated in the same manner. Plants ranged in height from 2 to 18 cm (1- to 4-leaf stage) for postemergence treatments. Treated plants and controls were maintained in a greenhouse for 13 to 15 days, after which time all species were compared to controls and visually evaluated. Plant response ratings, summarized in Table C, are based on a scale of 0 to 100 where 0 is no effect and 100 is complete control. A dash (-) response means no test result.

blackgrass = assay: Test C postemergence; format: in vivo, Alopecurus myosuroides; conditions: for Blackgrass plant response rating: scale 0 to 100
How it was run: as §1

crabgrass, large = assay: Test A preemergence; format: in vivo, Digitaria sanguinalis; conditions: 0 to 100 scale
How it was run: (§4)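 Ratings express plant response from 0 (no effect) to 100 (complete control), judged visually against untreated controls after approximately 10 days in the greenhouse. Preemergence applications were made as directed soil sprays onto seeded loam–sand mix, and postemergence applications onto 2–10 cm plants at one- to two-leaf stage.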

kochia = assay: Test C postemergence; format: in vivo, Kochia scoparia; conditions: for Kochia plant response rating: scale 0 to 100
How it was run: as §1

soybean = assay: Test C postemergence; format: in vivo, Glycine max; conditions: postemergence; for Soybean plant response rating: 62 g ai/ha, scale 0 to 100
How it was run: as §1

nutsedge, yellow = assay: Test C preemergence; format: in vivo, Cyperus esculentus; conditions: for Plant response rating (scale of 0 to 100), Nutsedge, Yellow: Preemergence, 250 g ai/ha; for Nutsedge, Yellow plant response rating / Plant response rating, Nutsedge, Yellow: preemergence; for Plant response rating, Nutsedge, Yellow: 62 g ai/ha, scale 0 to 100, 0 = no effect, 100 = complete control
How it was run: as §1

wheat [2] = assay: Test A preemergence; format: in vivo, Triticum aestivum
How it was run: as §4

lambsquarters = assay: Test C preemergence; format: in vivo, Chenopodium album; conditions: for Plant response rating (scale of 0 to 100), Lambsquarters: Preemergence, 250 g ai/ha; for Lambsquarters plant response rating / Plant response rating, Lambsquarters: preemergence; for Plant response rating, Lambsquarters: 62 g ai/ha, scale 0 to 100, 0 = no effect, 100 = complete control
Excerpt: as §2, §3

wheat [3] = assay: Test A postemergence; format: in vivo, Triticum aestivum
How it was run: as §4

velvetleaf [4] = assay: Test C postemergence; format: in vivo, Abutilon theophrasti; conditions: postemergence; for Velvetleaf plant response rating: 62 g ai/ha, scale 0 to 100
How it was run: as §1

[5] = 31 g ai/ha, scale 0 to 100 (0 no effect, 100 complete control), 13 to 15 days
[6] = 125 g ai/ha, scale 0 to 100, 0 is no effect, 100 is complete control
[7] = postemergence, 250 g ai/ha, scale 0 to 100 (0 no effect, 100 complete control)
[8] = postemergence, 125 g ai/ha, scale 0 to 100, 0 no effect, 100 complete control
[9] = 250 g ai/ha, scale 0 to 100 (0 no effect, 100 complete control)
[10] = 125 g ai/ha, scale 0 to 100, 0 no effect, 100 complete control
[11] = preemergence, 500 g ai/ha, visual injury after approx. 10 days, 0 to 100 scale (0 no effect, 100 complete control)
[12] = Preemergence, 500 g ai/ha, 0 no effect, 100 complete control
[13] = preemergence, 125 g ai/ha, visual injury, approx. 10 days
[14] = preemergence, 125 g ai/ha, visual injury, 0 to 100 scale, approx. 10 days
[15] = Postemergence, 500 g ai/ha, visual rating after approx. 10 days, 0 to 100 scale (0 no effect, 100 complete control)
[16] = postemergence, 125 g ai/ha, about 10 days, visual rating on 0 to 100 scale (0 no effect, 100 complete control)
[17] = postemergence, 62 g ai/ha, scale 0 to 100, 0 no effect, 100 complete control

Row | Compound | Plant response rating (scale of 0 to 100), Corn (corn) | Corn plant response rating (corn; [5]) | Plant response rating, Corn (corn; 13 to 15 days) | Corn plant response rating (corn; [6]) | Plant response rating (scale of 0 to 100), Velvetleaf (velvetleaf [1]) | Velvetleaf plant response rating (velvetleaf [1]; [5]) | Plant response rating, Velvetleaf (velvetleaf [1]; 13 to 15 days) | Velvetleaf plant response rating (velvetleaf [1]; [6]) | Blackgrass plant response rating (blackgrass; Postemergence, 31 g ai/ha) | Plant response rating, Blackgrass (blackgrass; [7]) | Kochia plant response rating (kochia; Postemergence, 31 g ai/ha) | Plant response rating, Kochia (kochia; [7]) | Plant response rating, Kochia (kochia; [8]) | Soybean plant response rating (soybean) | Plant response rating, Soybean (soybean; [9]) | Plant response rating, Soybean (soybean; [10]) | Plant response rating (scale of 0 to 100), Nutsedge, Yellow (nutsedge, yellow) | Nutsedge, Yellow plant response rating (nutsedge, yellow; [5]) | Plant response rating, Nutsedge, Yellow (nutsedge, yellow; 13 to 15 days) | Nutsedge, Yellow plant response rating (nutsedge, yellow; [6]) | further results
1 | Cc1cc(C(=O)NCC(F)(F)F)nn1Cc1ccnc(C(F)(F)F)c1 [Compound 74] | 98 | 10 | 60 | 75 | 100 | 45 | 65 | 100 | 0 | 5 | 20 | 90 | 80 | 80 | 85 | 85 | 98 | 15 | 60 | 80 | Blackgrass plant response rating (blackgrass; postemergence, 62 g ai/ha): 0; Plant response rating, Blackgrass (blackgrass; [8]): 5; Crabgrass, Large plant response rating (crabgrass, large; Preemergence, 1000 g ai/ha, 0 no effect, 100 complete control): 100; Kochia plant response rating (kochia; postemergence, 62 g ai/ha): 50; Wheat plant response rating (wheat [2]; Preemergence, 1000 g ai/ha, 0 to 100 scale, 0 no effect, 100 complete control): 100; Wheat plant response rating (wheat [2]; [11]): 30; Plant response rating (scale of 0 to 100), Lambsquarters (lambsquarters): 95; Lambsquarters plant response rating (lambsquarters; [5]): 85; Plant response rating, Lambsquarters (lambsquarters; 13 to 15 days): 90; Lambsquarters plant response rating (lambsquarters; [6]): 90; Wheat plant response rating (wheat [3]; Postemergence, 1000 g ai/ha, visual rating after approx. 10 days, 0 to 100 scale (0 no effect, 100 complete control)): 90; Velvetleaf plant response rating (velvetleaf [4]): 30; Plant response rating, Velvetleaf (velvetleaf [4]; [9]): 40; Plant response rating, Velvetleaf (velvetleaf [4]; [10]): 30
2 | CCONC(=O)c1cc(CC)n(Cc2cccc(OC(F)(F)F)c2)n1 [Compound 72] | 75 | 30 | 45 | 60 | 100 | 20 | 100 | 100 | 5 | 40 | 10 | 55 | 40 | 20 | 40 | 35 | 85 | 0 | 40 | 60 | Blackgrass plant response rating (blackgrass; postemergence, 62 g ai/ha): 10; Plant response rating, Blackgrass (blackgrass; [8]): 40; Crabgrass, Large plant response rating (crabgrass, large; [12]): 100; Crabgrass, Large plant response rating (crabgrass, large; [13]): 90; Kochia plant response rating (kochia; postemergence, 62 g ai/ha): 25; Wheat plant response rating (wheat [2]; [14]): 50; Wheat plant response rating (wheat [2]; [11]): 10; Plant response rating (scale of 0 to 100), Lambsquarters (lambsquarters): 100; Lambsquarters plant response rating (lambsquarters; [5]): 100; Plant response rating, Lambsquarters (lambsquarters; 13 to 15 days): 100; Lambsquarters plant response rating (lambsquarters; [6]): 100; Wheat plant response rating (wheat [3]; [15]): 80; Wheat plant response rating (wheat [3]; [16]): 70; Velvetleaf plant response rating (velvetleaf [4]): 5; Plant response rating, Velvetleaf (velvetleaf [4]; [9]): 55; Plant response rating, Velvetleaf (velvetleaf [4]; [10]): 35
3 | CCc1cc(C(=O)NOC(C)C)nn1Cc1cccc(OC(F)(F)F)c1 [Compound 70] | 85 | 40 | 60 | 70 | 100 | 20 | 60 | 75 | 0 | 25 | 50 | 70 | 55 | 55 | 65 | 55 | 85 | 0 | 65 | 70 | Plant response rating, Blackgrass (blackgrass; [17]): 5; Crabgrass, Large plant response rating (crabgrass, large; [12]): 100; Crabgrass, Large plant response rating (crabgrass, large; [13]): 100; Plant response rating, Kochia (kochia; [17]): 55; Wheat plant response rating (wheat [2]; [14]): 50; Wheat plant response rating (wheat [2]; [11]): 30; Plant response rating (scale of 0 to 100), Lambsquarters (lambsquarters): 100; Lambsquarters plant response rating (lambsquarters; [5]): 98; Plant response rating, Lambsquarters (lambsquarters; 13 to 15 days): 98; Lambsquarters plant response rating (lambsquarters; [6]): 100; Wheat plant response rating (wheat [3]; [15]): 70; Wheat plant response rating (wheat [3]; [16]): 70; Velvetleaf plant response rating (velvetleaf [4]): 20; Plant response rating, Velvetleaf (velvetleaf [4]; [9]): 55; Plant response rating, Velvetleaf (velvetleaf [4]; [10]): 30
